Source: ChEMBL document CHEMBL5034019, “Discovery of the Next-Generation Pan-TRK Kinase Inhibitors for the Treatment of Cancer” (J Med Chem, 2021)

Columns and labels:
[1] = Metabolic stability in rat liver microsomes assessed as intrinsic clearance at 1 uM by LC-MS/MS analysis; type: ADME, Microsome; settings: read-out: CLH
[2] = Protein binding in human plasma assessed as unbound fraction by LC-MS/MS based equilibrium dialysis method; type: ADME, cell-free
[3] = Protein binding in rat plasma assessed as unbound fraction by LC-MS/MS based equilibrium dialysis method; type: ADME, cell-free
[4] = Apparent permeability across apical to basolateral side in human Caco-2 cells incubated for 2 hrs by LC-MS/MS analysis; type: ADME, cell-based
[5] = Protein binding in dog plasma assessed as unbound fraction by LC-MS/MS based equilibrium dialysis method; type: ADME, cell-free, Canis lupus familiaris
Cytochrome P450 3A4 = Cytochrome P450 3A4 (Homo sapiens, UniProt P08684); experiment: Inhibition of CYP3A4 in human pooled liver microsomes using midazolam and testosterone as substrate in presence of NADPH by LC-MS/MS analysis; type: ADME
Sequence of Cytochrome P450 3A4 (P08684 whole entry): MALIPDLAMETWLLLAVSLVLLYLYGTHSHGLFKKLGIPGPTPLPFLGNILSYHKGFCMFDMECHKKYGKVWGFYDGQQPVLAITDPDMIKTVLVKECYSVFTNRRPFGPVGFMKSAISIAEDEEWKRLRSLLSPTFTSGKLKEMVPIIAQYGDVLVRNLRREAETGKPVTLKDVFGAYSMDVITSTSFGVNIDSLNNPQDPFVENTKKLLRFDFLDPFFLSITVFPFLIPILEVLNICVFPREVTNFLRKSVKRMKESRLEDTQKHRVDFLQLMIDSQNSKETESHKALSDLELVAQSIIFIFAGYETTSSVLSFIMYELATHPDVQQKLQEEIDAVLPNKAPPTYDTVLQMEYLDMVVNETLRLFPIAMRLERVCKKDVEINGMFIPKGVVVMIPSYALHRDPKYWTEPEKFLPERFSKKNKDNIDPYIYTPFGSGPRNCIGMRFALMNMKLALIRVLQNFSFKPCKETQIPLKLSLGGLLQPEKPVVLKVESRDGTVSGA

[6] = AUC (0 to t) in female Sprague-Dawley rat at 2 mg/kg, iv measured up to 24 hrs by LC-MS/MS analysis; type: ADME, organism-based; parameters: route intravenous, dose 2 mg/kg, time <=24; settings: in vivo
[7] = Protein binding in mouse plasma assessed as unbound fraction by LC-MS/MS based equilibrium dialysis method; type: ADME, cell-free
[8] = system: Tyrosine-protein kinase BTK (Homo sapiens), Q06187 [R28H]; experiment: Inhibition of recombinant full length human BTK R28H mutant assessed as residual activity at 0.5 uM using LSNLYHQGKFLQT as substrate incubated for 40 mins in presence of [gamma-33P]-ATP by scintillation counting method relative to control
Sequence of Tyrosine-protein kinase BTK (Homo sapiens), Q06187 [R28H] (Q06187 whole entry R28H): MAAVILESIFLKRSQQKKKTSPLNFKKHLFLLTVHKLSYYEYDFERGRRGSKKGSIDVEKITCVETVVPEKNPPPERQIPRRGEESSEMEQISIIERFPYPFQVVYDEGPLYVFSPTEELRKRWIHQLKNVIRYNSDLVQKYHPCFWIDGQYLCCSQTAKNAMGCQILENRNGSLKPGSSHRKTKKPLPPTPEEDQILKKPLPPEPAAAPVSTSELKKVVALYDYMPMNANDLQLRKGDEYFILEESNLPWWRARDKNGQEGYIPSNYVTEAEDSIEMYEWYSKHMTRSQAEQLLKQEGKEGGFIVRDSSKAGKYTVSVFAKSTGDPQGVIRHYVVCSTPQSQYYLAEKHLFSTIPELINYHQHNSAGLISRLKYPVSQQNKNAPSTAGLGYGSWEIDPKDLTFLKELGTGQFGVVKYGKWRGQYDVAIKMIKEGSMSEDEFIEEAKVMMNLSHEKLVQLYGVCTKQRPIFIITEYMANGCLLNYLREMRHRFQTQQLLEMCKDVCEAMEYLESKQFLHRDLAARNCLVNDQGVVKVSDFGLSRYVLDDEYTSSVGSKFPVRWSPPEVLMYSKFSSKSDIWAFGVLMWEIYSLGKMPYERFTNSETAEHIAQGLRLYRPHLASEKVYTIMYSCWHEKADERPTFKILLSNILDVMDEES

BaF3 [9] = experiment: Cytotoxicity against mouse BaF3 cells transfected with SLC34A2-Ros1 assessed as reduction in cell viability by MTT assay; type: functional, cell-based
BaF3 [10] = experiment: cells; settings: Mus musculus
Description: Cytotoxicity against mouse BaF3 cells transfected with TrKA assessed as reduction in cell viability by MTT assay

[11] = Metabolic stability in dog liver microsomes assessed as intrinsic clearance at 1 uM by LC-MS/MS analysis; type: ADME, Canis lupus familiaris, Microsome; settings: read-out: CLH
BaF3 [12] = experiment: Cytotoxicity against mouse BaF3 cells transfected with TrKA G595R mutant assessed as reduction in cell viability by MTT assay; type: functional, cell-based
Cytochrome P450 2C19 = Cytochrome P450 2C19 (Homo sapiens, UniProt P33261); experiment: Inhibition of CYP2C19 in human pooled liver microsomes using S-mephenytoin as substrate in presence of NADPH by LC-MS/MS analysis; type: ADME
Sequence of Cytochrome P450 2C19 (P33261 whole entry): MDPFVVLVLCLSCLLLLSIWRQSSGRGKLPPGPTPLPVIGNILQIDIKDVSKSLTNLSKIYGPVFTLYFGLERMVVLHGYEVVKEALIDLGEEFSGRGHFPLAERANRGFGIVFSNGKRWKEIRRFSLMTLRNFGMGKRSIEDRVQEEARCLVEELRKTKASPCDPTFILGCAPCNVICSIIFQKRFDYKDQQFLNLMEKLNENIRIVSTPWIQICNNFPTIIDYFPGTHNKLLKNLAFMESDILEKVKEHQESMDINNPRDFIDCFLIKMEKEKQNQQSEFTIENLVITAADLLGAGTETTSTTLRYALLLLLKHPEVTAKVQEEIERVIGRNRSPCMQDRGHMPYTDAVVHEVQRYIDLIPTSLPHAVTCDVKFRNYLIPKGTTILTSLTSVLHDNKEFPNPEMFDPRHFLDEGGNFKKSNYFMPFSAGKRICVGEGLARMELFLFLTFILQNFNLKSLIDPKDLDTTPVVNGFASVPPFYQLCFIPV

[13] = Metabolic stability in human liver microsomes assessed as intrinsic clearance at 1 uM by LC-MS/MS analysis; type: ADME, Microsome; settings: read-out: CLH
[14] = system: Proto-oncogene tyrosine-protein kinase receptor Ret (Homo sapiens), P07949 [V804M]; experiment: Inhibition of recombinant human Ret V804M mutant (658 to end residues) assessed as residual activity at 0.5 uM using […] as substrate incubated for 40 mins in presence of [gamma33P]ATP by scintillation counting based radiometry assay relative to control
[15] = target: Proto-oncogene tyrosine-protein kinase ROS (Homo sapiens, UniProt P08922)
Sequence of Proto-oncogene tyrosine-protein kinase ROS (P08922 whole entry, the tested form may be a part): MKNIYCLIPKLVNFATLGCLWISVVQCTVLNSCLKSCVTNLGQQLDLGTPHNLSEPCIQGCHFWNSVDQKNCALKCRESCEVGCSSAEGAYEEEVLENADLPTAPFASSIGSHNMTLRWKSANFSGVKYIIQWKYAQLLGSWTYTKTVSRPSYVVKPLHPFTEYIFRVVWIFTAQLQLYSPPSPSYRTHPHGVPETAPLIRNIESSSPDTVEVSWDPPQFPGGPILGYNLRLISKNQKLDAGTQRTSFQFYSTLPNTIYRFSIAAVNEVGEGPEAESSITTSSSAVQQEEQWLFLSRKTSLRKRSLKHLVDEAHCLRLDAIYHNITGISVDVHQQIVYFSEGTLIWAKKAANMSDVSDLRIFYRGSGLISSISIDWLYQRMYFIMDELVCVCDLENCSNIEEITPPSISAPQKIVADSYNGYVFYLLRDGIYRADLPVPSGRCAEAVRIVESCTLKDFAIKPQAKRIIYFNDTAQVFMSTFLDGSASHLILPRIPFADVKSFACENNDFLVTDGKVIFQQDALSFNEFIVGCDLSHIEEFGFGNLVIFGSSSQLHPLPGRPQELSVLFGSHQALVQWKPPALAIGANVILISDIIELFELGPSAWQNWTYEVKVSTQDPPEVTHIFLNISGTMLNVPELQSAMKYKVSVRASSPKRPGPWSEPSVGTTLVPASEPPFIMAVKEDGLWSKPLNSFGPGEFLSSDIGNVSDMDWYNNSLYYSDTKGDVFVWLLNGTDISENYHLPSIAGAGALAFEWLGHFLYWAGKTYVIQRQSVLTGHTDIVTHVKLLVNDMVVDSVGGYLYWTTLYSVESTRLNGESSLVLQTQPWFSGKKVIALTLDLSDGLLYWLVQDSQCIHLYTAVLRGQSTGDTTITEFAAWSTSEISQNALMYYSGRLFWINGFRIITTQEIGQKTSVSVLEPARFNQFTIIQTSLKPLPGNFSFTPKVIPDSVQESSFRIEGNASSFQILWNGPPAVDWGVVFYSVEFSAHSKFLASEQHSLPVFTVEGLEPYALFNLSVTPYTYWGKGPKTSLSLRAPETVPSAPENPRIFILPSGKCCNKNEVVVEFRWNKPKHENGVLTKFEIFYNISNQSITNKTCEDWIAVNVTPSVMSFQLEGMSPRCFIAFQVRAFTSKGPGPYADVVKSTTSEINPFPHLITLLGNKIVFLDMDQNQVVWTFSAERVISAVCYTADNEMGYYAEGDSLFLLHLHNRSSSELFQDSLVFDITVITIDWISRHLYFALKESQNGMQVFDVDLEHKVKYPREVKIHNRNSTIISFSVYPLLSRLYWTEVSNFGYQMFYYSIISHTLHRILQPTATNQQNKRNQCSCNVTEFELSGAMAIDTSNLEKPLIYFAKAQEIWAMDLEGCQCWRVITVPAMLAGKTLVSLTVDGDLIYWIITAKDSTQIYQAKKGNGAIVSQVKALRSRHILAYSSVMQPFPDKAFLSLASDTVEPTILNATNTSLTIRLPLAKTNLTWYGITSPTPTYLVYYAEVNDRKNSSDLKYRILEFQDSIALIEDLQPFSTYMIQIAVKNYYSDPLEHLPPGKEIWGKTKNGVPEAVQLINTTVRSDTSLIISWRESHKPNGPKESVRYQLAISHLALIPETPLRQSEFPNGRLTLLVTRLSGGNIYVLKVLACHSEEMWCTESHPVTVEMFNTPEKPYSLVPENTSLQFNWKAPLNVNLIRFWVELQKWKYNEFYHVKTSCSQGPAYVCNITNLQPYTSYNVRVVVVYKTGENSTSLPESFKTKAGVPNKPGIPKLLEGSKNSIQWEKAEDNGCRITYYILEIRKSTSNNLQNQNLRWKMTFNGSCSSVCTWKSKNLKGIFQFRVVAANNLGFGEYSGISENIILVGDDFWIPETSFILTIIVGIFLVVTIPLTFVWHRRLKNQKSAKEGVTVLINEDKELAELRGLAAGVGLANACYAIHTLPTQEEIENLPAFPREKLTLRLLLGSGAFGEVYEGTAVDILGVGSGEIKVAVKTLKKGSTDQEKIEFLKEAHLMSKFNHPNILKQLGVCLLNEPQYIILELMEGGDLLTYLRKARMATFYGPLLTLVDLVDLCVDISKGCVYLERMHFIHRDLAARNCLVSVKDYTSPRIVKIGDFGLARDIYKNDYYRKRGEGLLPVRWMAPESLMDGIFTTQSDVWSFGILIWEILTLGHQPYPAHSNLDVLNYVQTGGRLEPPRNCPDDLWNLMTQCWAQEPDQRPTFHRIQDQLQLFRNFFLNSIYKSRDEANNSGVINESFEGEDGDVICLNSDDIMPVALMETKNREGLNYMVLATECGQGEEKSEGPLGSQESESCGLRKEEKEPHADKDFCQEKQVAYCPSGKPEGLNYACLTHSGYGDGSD
Description: Inhibition of ROS1 (unknown origin) incubated for 120 mins in presence of 33P-ATP

[16] = target: Fibroblast growth factor receptor 1 (Homo sapiens) (UniProt P11362); experiment: Inhibition of recombinant human FGFR1 (456 to 765 residues) assessed as residual activity at 0.5 uM using KKKSPGEYVNIEF as substrate at 40 mins in presence of [gamma-33ATP] by scintillation counting based radiometry assay relative to control
[17] = system: Epidermal growth factor receptor (Homo sapiens), P00533 [L858R]; experiment: Inhibition of recombinant human EGFR L858R mutant (696 to end residues) assessed as residual activity at 0.5 uM using poly(Glu, Tyr) 4:1 as substrate at 40 mins in presence of [gamma-33ATP] by scintillation counting based radiometry assay relative to control
[18] = target: Proto-oncogene tyrosine-protein kinase Src (Homo sapiens) (UniProt P12931); experiment: Inhibition of human Src (1 to 530 residues) assessed as residual activity at 0.5 uM using GGEEEEYFELVKKKK as substrate measured after 40 mins in presence of [gamma33P]ATP by scintillation counting method relative to control
[19] = Metabolic stability in mouse liver microsomes assessed as intrinsic clearance at 1 uM by LC-MS/MS analysis; type: ADME, Microsome; settings: read-out: CLH
BaF3 [20] = experiment: Cytotoxicity against mouse BaF3 cells transfected with TrKA G623R mutant assessed as reduction in cell viability by MTT assay; type: functional, cell-based
BaF3 [21] = experiment: Cytotoxicity against mouse BaF3 cells transfected with TrKA F589L mutant assessed as reduction in cell viability by MTT assay; type: functional, cell-based
Cytochrome P450 2C9 = Cytochrome P450 2C9 (Homo sapiens, UniProt P11712); experiment: Inhibition of CYP2C9 in human pooled liver microsomes using diclofenac as substrate in presence of NADPH by LC-MS/MS analysis; type: ADME
Sequence of Cytochrome P450 2C9 (P11712 whole entry): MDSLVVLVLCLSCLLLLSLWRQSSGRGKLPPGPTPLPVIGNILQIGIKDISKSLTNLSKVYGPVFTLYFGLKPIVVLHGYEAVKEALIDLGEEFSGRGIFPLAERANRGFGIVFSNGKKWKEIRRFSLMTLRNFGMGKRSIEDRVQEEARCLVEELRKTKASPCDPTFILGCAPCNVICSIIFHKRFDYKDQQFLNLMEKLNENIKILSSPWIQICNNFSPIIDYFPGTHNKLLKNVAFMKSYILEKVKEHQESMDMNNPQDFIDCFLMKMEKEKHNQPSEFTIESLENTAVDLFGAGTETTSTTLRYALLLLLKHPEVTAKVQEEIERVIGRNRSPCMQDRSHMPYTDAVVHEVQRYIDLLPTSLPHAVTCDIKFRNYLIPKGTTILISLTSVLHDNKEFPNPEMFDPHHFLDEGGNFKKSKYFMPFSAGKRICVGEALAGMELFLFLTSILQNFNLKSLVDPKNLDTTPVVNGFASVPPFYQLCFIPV

Cytochrome P450 2D6 = Cytochrome P450 2D6 (Homo sapiens, UniProt P10635); experiment: Inhibition of CYP2D6 in human pooled liver microsomes using dextromethorphan as substrate in presence of NADPH by LC-MS/MS analysis; type: ADME
Sequence of Cytochrome P450 2D6 (P10635 whole entry): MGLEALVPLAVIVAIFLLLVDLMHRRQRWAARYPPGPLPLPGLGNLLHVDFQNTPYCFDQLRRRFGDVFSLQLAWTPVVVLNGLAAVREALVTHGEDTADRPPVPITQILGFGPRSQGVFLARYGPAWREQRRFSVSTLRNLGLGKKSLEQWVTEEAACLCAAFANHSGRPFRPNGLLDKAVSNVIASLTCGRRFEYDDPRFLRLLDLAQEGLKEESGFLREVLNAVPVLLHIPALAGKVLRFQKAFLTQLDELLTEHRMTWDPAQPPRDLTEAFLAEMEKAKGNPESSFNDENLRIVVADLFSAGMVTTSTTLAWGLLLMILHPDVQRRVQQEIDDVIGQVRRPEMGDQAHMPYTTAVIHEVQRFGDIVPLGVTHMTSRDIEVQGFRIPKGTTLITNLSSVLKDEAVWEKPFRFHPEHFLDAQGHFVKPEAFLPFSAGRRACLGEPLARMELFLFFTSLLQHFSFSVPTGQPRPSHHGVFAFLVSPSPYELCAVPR

BaF3 [22] = experiment: Cytotoxicity against mouse BaF3 cells transfected with TrKA G667A mutant assessed as reduction in cell viability by MTT assay; type: functional, cell-based
Cytochrome P450 1A2 = target: T1, Cytochrome P450 1A2 (Homo sapiens, UniProt P05177); experiment: Inhibition of CYP1A2 in human pooled liver microsomes using phenacetin as substrate in presence of NADPH by LC-MS/MS analysis; type: ADME
T1 sequence (P05177 whole entry): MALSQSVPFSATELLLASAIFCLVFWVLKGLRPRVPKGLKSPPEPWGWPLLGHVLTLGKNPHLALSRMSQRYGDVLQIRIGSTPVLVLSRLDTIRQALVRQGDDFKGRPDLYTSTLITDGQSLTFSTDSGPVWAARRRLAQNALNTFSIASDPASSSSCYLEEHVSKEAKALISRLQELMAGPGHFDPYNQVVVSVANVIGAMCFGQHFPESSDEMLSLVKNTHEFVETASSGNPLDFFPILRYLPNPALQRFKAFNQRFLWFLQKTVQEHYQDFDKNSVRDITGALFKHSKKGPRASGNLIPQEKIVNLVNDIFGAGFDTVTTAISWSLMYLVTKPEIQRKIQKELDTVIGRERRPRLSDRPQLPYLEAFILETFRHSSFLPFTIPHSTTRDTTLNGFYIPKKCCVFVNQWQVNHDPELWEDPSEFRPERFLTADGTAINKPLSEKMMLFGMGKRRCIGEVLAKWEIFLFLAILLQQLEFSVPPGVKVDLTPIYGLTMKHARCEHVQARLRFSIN

[23] = Cmax in Sprague-Dawley rat at 10 mg/kg, po measured up to 24 hrs by LC-MS/MS analysis; type: ADME, organism-based; parameters: route oral, dose 10 mg/kg, time <=24; settings: in vivo
[24] = Toxicity in […] xenografted with mouse BaF3 cells transfected with ETV6-NTRK3 assessed as death at 100 mg/kg, po administered once daily for 21 days and measured twice weekly; type: organism-based; settings: in vivo, 504 h, time 21 day

For `O=C1NC2(CC2)COc2ncc(F)cc2[C@H]2COCCN2c2ccn3ncc1c3n2`, the CLint scaled at 1 µM [1] was 28.8 mL/min/kg, the fraction unbound [2] was 0.16 and the fraction unbound [3] was 0.12. For the same molecule, the Papp A→B at 2 h [4] was 12 ×10⁻⁶ cm/s, the fraction unbound [5] was 0.21 and the IC50 (Cytochrome P450 3A4) was greater than 50000 nM. For the same molecule, the AUC(0-t) at 24 h [6] was 10.3 µM·h, the fraction unbound [7] was 0.11 and the Activity [8] was 74%. It also gave an IC50 (BaF3 [9]) of 2.3 nM, an IC50 (BaF3 [10]) of 0.6 nM and a CLint scaled at 1 µM [11] of less than 10.7 mL/min/kg. It also gave an IC50 (BaF3 [12]) of 7.7 nM, an IC50 (Cytochrome P450 2C19) of 89000 nM and a CLint scaled at 1 µM [13] of 17.7 mL/min/kg. It also gave an Activity [14] of 54%, an IC50 [15] of 1 nM and an Activity [16] of 92%. The Activity [17] was 91%, the Activity [18] was 33% and the CLint scaled at 1 µM [19] was 1500 mL/min/kg. For the same molecule, the IC50 (BaF3 [20]) was 2.7 nM, the IC50 (BaF3 [21]) was 4.9 nM and the IC50 (Cytochrome P450 2C9) was 18100 nM. For the same molecule, the IC50 (Cytochrome P450 2D6) was greater than 100000 nM, the IC50 (BaF3 [22]) was 0.8 nM and the IC50 (Cytochrome P450 1A2) was greater than 100000 nM.

Work on `C[C@@H]1CCc2ncc(F)cc2[C@H]2CCCN2c2ccn3ncc(c3n2)C(=O)N1` [SELITRECTINIB] yielded a CLint scaled at 1 µM [1] of 92 mL/min/kg, a fraction unbound [2] of 0.34 and a fraction unbound [3] of 0.03. For the same molecule, the Papp A→B at 2 h [4] was 8.4 ×10⁻⁶ cm/s, the fraction unbound [5] was 0.2 and the IC50 (Cytochrome P450 3A4) was greater than 50000 nM. It also gave a fraction unbound [7] of 0.02, an IC50 (BaF3 [9]) of 36.7 nM and an IC50 (BaF3 [10]) of 4.9 nM. For the same molecule, the Cmax [23] was 12.7 µM, the CLint scaled at 1 µM [11] was 38 mL/min/kg and the IC50 (BaF3 [12]) was 6.8 nM. For the same molecule, the IC50 (Cytochrome P450 2C19) was greater than 50000 nM, the CLint scaled at 1 µM [13] was 76 mL/min/kg and the Activity [24] was “Toxic”. The CLint scaled at 1 µM [19] was 1350 mL/min/kg, the IC50 (BaF3 [20]) was 2.7 nM and the IC50 (BaF3 [21]) was 25.4 nM. For the same molecule, the IC50 (Cytochrome P450 2C9) was greater than 50000 nM, the IC50 (Cytochrome P450 2D6) was greater than 50000 nM and the IC50 (BaF3 [22]) was 24.4 nM. The IC50 (Cytochrome P450 1A2) was greater than 50000 nM.
